Laboratory results taken from US9913809B1, “Anti-cancer activity of (E)-1-(3′,4′-dimethoxyphenyl) butadiene” (SAMI LABS LIMITED, priority 2016, dated 2018).
In brackets after ≈: the same amount, converted by molar mass.

Columns and labels:
[1] = tested on: P-selectin (CD 62P); experiment: Flow cytometry, P-selectin expression in pancreatic carcinoma cells; format: cell-based, human; conditions: flow cytometric studies
[2] = tested on: P-selectin (CD 62P); experiment: Flow cytometry, P-selectin expression in K562 lymphoblastoma cells; format: cell-based, human; conditions: TNF-alpha and IL-1beta 10 ng/ml, 72 hours
[3] = tested on: A549 cancer cell line (Lung carcinoma); experiment: MTT cytotoxicity assay, A549; format: cell-based; conditions: Homo sapiens
Experimental: (§1) Human pancreatic PANC-1 cancer cell line (pancreatic carcinoma cells), human prostate DU145 cancer cell line (prostate carcinoma), human ovarian cancer SKOV3 (ovarian carcinoma) cell line, colon Caco-2 cancer cell line (Colon Carcinoma), lung A549 cancer cell line (Lung carcinoma), lymphoblastoma K562 cancer cell line, melanoma B16F1 cancer cell line and colorectal HCT cancer cell line (Colorectal carcinoma), were grown and cultured using standard protocols known in the art. The cancer cell lines were treated with DMPBD in varying concentrations for measuring cytotoxicity. The estimation of the viability assay of the cells was done by the MTT (3-(4,5-dimethylthiazol-2-yl)-2,5-diphenyltetrazolium bromide) colorimetric assay. The MTT Assay measures the cell proliferation rate and conversely, when metabolic events lead to apoptosis or necrosis, the reduction in cell viability. The data is analyzed by plotting cell number versus absorbance allowing the quantification of changes in cell proliferation. The rate of tetrazolium reduction is proportional to the rate of cell proliferation. […]
(§2) The MTT Assay as performed was adapted from (1) Tim Mosmann. […] A tetrazolium-based colorimetric MTT assay to quantitate human monocyte mediated cytotoxicity against leukemic cells from cell lines and patients with acute myeloid leukemia. […]

[4] = tested on: E-selectin (CD 62E); experiment: Flow cytometry, E-selectin expression in pancreatic carcinoma cells; format: cell-based, human; conditions: flow cytometric studies
[5] = tested on: melanoma B16F1 cancer cell line; experiment: MTT cytotoxicity assay, B16F1; format: cell-based, human; conditions: Mus musculus, B16-F1
Experimental: as §1, §2

[6] = tested on: P-selectin (CD 62P); experiment: Flow cytometry, P-selectin expression in HCT colorectal carcinoma cells; format: cell-based, human; conditions: TNF-alpha and IL-1beta 10 ng/ml, 72 hours
[7] = tested on: HCT cancer cell line (Colorectal carcinoma); experiment: MTT cytotoxicity assay, HCT; format: cell-based; conditions: Homo sapiens
Experimental: as §1, §2

[8] = tested on: Caco-2 cancer cell line (Colon Carcinoma); experiment: MTT cytotoxicity assay, Caco-2; format: cell-based; conditions: Homo sapiens, Caco-2, colon carcinoma
Experimental: as §1, §2

[9] = tested on: lymphoblastoma K562 cancer cell line; experiment: MTT cytotoxicity assay, K562; format: cell-based; conditions: Homo sapiens
Experimental: as §1, §2

[10] = tested on: L-selectin (CD 62L); experiment: Flow cytometry, L-selectin expression in pancreatic carcinoma cells; format: cell-based, human; conditions: flow cytometric studies
[11] = tested on: P-selectin (CD 62P); experiment: Flow cytometry, P-selectin expression in LNCap prostate carcinoma cells; format: cell-based, human; conditions: DMPBD 70 μg/ml, TNF-alpha and IL-1beta 10 ng/ml, 72 hours
[12] = tested on: PANC-1 cancer cell line (pancreatic carcinoma cells); experiment: MTT cytotoxicity assay, PANC-1; format: cell-based; conditions: Homo sapiens, PANC-1, pancreatic carcinoma
Experimental: as §1, §2

[13] = tested on: SKOV3 (ovarian carcinoma) cell line; experiment: MTT cytotoxicity assay, SKOV3; format: cell-based; conditions: Homo sapiens, SK-OV-3
Experimental: as §1, §2

[14] = tested on: DU145 cancer cell line (prostate carcinoma); experiment: MTT cytotoxicity assay, DU145; format: cell-based; conditions: Homo sapiens, DU 145, prostate carcinoma
Experimental: as §1, §2

[15] = tested on: L-selectin (CD 62L); experiment: Flow cytometry, L-selectin expression in HCT colorectal carcinoma cells; format: cell-based, human; conditions: TNF-alpha and IL-1beta 10 ng/ml, 72 hours
[16] = tested on: L-selectin (CD 62L); experiment: Flow cytometry, L-selectin expression in LNCap prostate carcinoma cells; format: cell-based, human; conditions: DMPBD 20 μg/ml, TNF-alpha and IL-1beta 10 ng/ml, 72 hours
[17] = tested on: L-selectin (CD 62L); experiment: Flow cytometry, L-selectin expression in K562 lymphoblastoma cells; format: cell-based, human; conditions: DMPBD 20 μg/ml, TNF-alpha and IL-1beta 10 ng/ml, 72 hours

C=C/C=C/c1ccc(OC)c(OC)c1 [DMPBD, (E)-1-(3′, 4′-Dimethoxyphenyl) butadiene]
expression of P-selectin [1]: significant fold decrease
% Reduction of P-selectin expression ([2]; DMPBD 10 μg/ml): 11.6%
% Reduction of P-selectin expression ([2]; DMPBD 20 μg/ml): 35.4%
IC50 [3]: 30.2 µg/mL (≈ 159 µM)
expression of E-selectin [4]: significant fold decrease
IC50 [5]: 26.4 µg/mL (≈ 139 µM)
% Reduction of P-selectin expression ([6]; DMPBD 10 μg/ml): 11.8%
% Reduction of P-selectin expression ([6]; DMPBD 20 μg/ml): 27.8%
IC50 [7]: 25.5 µg/mL (≈ 134 µM)
IC50 [8]: 39.3 µg/mL (≈ 207 µM)
IC50 [9]: 22.5 µg/mL (≈ 118 µM)
expression of L-selectin [10]: significant fold decrease
% Reduction of P-selectin expression [11]: 11.1%
IC50 [12]: 4.2 µg/mL (≈ 22.1 µM)
IC50 [13]: 13.5 µg/mL (≈ 71 µM)
IC50 [14]: 8.6 µg/mL (≈ 45.2 µM)
% Reduction of L-selectin expression ([15]; DMPBD 10 μg/ml): 11.3%
% Reduction of L-selectin expression ([15]; DMPBD 20 μg/ml): 21.1%
% Reduction of L-selectin expression [16]: 7.3%
% Reduction of L-selectin expression [17]: 30.3%
